Test results published in ChEMBL document CHEMBL1135507, “II. Synthesis and biological evaluation of some bioisosteres and congeners of the antitumor agent, 2-(4-[(7-chloro-2-quinoxalinyl)oxy]phenoxy)propionic acid (XK469)” (2002).
The source made the active and inactive calls. The calls are words filed in the database; no cut-off is given here.

What was measured:
[1] = […] cytotoxicity against resistant mammary adenocarcinoma-17/adr(M17/adr) after the administration of 6 injections (iv) at a dose of 450 (mg/kg) in 5 Mice; format: functional, Mus musculus
[2] = In vitro cytotoxicity against resistant mammary adenocarcinoma-17/adr(M17/adr) after the administration of 6 injections (iv) at a dose of 450 (mg/kg); format: functional, Mus musculus
[3] = In vitro cytotoxicity against resistant mammary adenocarcinoma-17/adr(M17/adr) after the administration of 6 injections (iv) at a dose of 300 mg/kg in 5 Mice; format: functional, Mus musculus
[4] = In vitro cytotoxicity against resistant mammary adenocarcinoma-17/adr(M17/adr) after the administration of 6 injections (iv) at a dose of 300 mg/kg; format: functional, Mus musculus
[5] = test system: Mus musculus; assay: […] cytotoxicity against advanced stage pancreatic ductal adenocarcinoma 03 after the administration of 7 injections (iv) at a dose of 336(mg/kg) in 5 Mice; format: functional
[6] = test system: Mus musculus; assay: […] cytotoxicity against advanced stage pancreatic ductal adenocarcinoma 03 after the administration of 7 injections (iv) at a dose of 336(mg/kg); format: functional
[7] = test system: Mus musculus; assay: […] cytotoxicity against advanced stage pancreatic ductal adenocarcinoma 03 after the administration of 7 injections (iv) at a dose of 560(mg/kg) in 7 Mice; format: functional
[8] = test system: Mus musculus; assay: […] cytotoxicity against advanced stage pancreatic ductal adenocarcinoma 03 after the administration of 7 injections (iv) at a dose of 560(mg/kg); format: functional
[9] = test system: Mus musculus; assay: […] cytotoxicity against advanced stage pancreatic ductal adenocarcinoma 03 after the administration of 5 injections (iv) at a dose of 450 (mg/kg) in 5 mice; format: functional
[10] = test system: Mus musculus; assay: […] cytotoxicity against advanced stage pancreatic ductal adenocarcinoma 03 after the administration of 5 injections (iv) at a dose of 450 (mg/kg); format: functional
[11] = test system: Mus musculus; assay: […] cytotoxicity against advanced stage pancreatic ductal adenocarcinoma 03 after the administration of 5 injections (iv) at a dose of 450 (mg/kg) in 5 Mice; format: functional
[12] = In vitro cytotoxicity against resistant mammary adenocarcinoma-17/adr(M17/adr) after the administration of 7 injections (iv) at a dose of 370 (mg/kg) in 5 Mice; format: functional, Mus musculus
[13] = In vitro cytotoxicity against resistant mammary adenocarcinoma-17/adr(M17/adr) after the administration of 7 injections (iv) at a dose of 370 (mg/kg); format: functional, Mus musculus
[14] = […] cytotoxicity against resistant mammary adenocarcinoma-17/adr(M17/adr) after the administration (iv) of 13 injections at a dose of 364(mg/kg) in 5 Mice; format: functional, Mus musculus
[15] = […] cytotoxicity against resistant mammary adenocarcinoma-17/adr(M17/adr) after the administration (iv) of 13 injections at a dose of 364(mg/kg); format: functional, Mus musculus
[16] = test system: Mus musculus; assay: […] cytotoxicity against advanced stage pancreatic ductal adenocarcinoma 03 after the administration of 6 injections (iv) at a dose of 480 (mg/kg) in 4 Mice; format: functional
[17] = test system: Mus musculus; assay: […] cytotoxicity against advanced stage pancreatic ductal adenocarcinoma 03 after the administration of 6 injections (iv) at a dose of 480 (mg/kg); format: functional
[18] = In vitro cytotoxicity against resistant mammary adenocarcinoma-17/adr(M17/adr) after the administration of 6 injections (iv) at a dose of 352(mg/kg) in 5 Mice; format: functional, Mus musculus
[19] = In vitro cytotoxicity against resistant mammary adenocarcinoma-17/adr(M17/adr) after the administration of 6 injections (iv) at a dose of 352(mg/kg); format: functional, Mus musculus
[20] = In vitro cytotoxicity against resistant mammary adenocarcinoma-17/adr(M17/adr) after the administration of 7 injections (iv) at a dose of 455 (mg/kg) in 3 Mice; format: functional, Mus musculus
[21] = test system: Mus musculus; assay: […] cytotoxicity against resistant mammary adenocarcinoma-17/adr(M17/adr) after the administration of 7 injections (iv) at a dose of 455 (mg/kg); Activity value is none; format: functional, organism-based
[22] = In vitro cytotoxicity against resistant mammary adenocarcinoma-17/adr(M17/adr) after the administration of 7 injections (iv) at a dose of 455 (mg/kg); format: functional, Mus musculus
[23] = In vitro cytotoxicity against resistant mammary adenocarcinoma-17/adr(M17/adr) after the administration of 7 injections (iv) at a dose of 324(mg/kg) in 5 Mice; format: functional, Mus musculus
[24] = In vitro cytotoxicity against resistant mammary adenocarcinoma-17/adr(M17/adr) after the administration of 7 injections (iv) at a dose of 324(mg/kg); format: functional, Mus musculus
[25] = In vitro cytotoxicity against resistant mammary adenocarcinoma-17/adr(M17/adr) after the administration of 7 injections (iv) at a dose of 462 (mg/kg) in 4 Mice; format: functional, Mus musculus
[26] = test system: Mus musculus; assay: […] cytotoxicity against resistant mammary adenocarcinoma-17/adr(M17/adr) after the administration of 7 injections (iv) at a dose of 462 (mg/kg);Activity value is none; format: functional, organism-based
[27] = […] cytotoxicity against resistant mammary adenocarcinoma-17/adr(M17/adr) after the administration of 7 injections (iv) at a dose of 462 (mg/kg); format: functional, Mus musculus

## COc1ccc2ccc(Oc3ccc(OC(C)C(=O)O)cc3)nc2c1 (stereo not drawn)
[1]
  Cures: 0
  Drug deaths: 0
[2]
  Activity rating: >2.8
  Body weight loss at nadir: -5%
  Log tumor cell kill: 3
  T/C: 0%

## CC(Oc1ccc(Oc2ccc3ccc(Cl)cc3n2)cc1)C(=O)O (racemic)
[3]
  Cures: 0
  Drug deaths: 0
[4]
  Activity rating: >2.8
  Body weight loss at nadir: -10.6%
  Log tumor cell kill: 3.8
  T/C: 0%
[5]
  Cures: 0
  Drug deaths: 0
[6]
  Activity rating: 2.8
  Body weight loss at nadir: -8.9%
  Log tumor cell kill: 2.6
  T/C: 0%

## CC(Oc1ccc(Oc2cnc3ccc(Cl)cc3n2)cc1)C(=O)O (stereo not drawn)
[7]
  Cures: 0
  Drug deaths: 0
[8]
  Activity rating: 2.8
  Body weight loss at nadir: 2.5%
  Log tumor cell kill: 2
  T/C: 24.5%

## COc1ccc2ccc(Oc3ccc(OC(C)C(=O)O)cc3)nc2c1 (racemic)
[9]
  Cures: 0
[10]
  Activity rating: 1.2
  Body weight loss at nadir: -2%
  Log tumor cell kill: 0.8
  T/C: 45%
[11]
  Drug deaths: 0

## CC(Oc1ccc(Oc2ccc3ccc(Cl)cc3n2)cc1)C(=O)O (stereo not drawn)
[7]
  Cures: 0
  Drug deaths: 0
[8]
  Activity rating: 2.8
  Body weight loss at nadir: 3.7%
  Log tumor cell kill: 2.3
  T/C: 14.1%

## CC(Oc1ccc(Oc2ccc3ccc(I)cc3n2)cc1)C(=O)O (racemic)
[12]
  Cures: 0
  Drug deaths: 0
[13]
  Activity rating: 1.9
  Body weight loss at nadir: -4%
  Log tumor cell kill: 2.1
  T/C: 2%

## CC(Oc1ccc(Oc2cnc3ccc(Cl)cc3n2)cc1)C(=O)O (racemic)
[14]
  Cures: 0
  Drug deaths: 0
[15]
  Activity rating: >2.8
  Body weight loss at nadir: 0%
  Log tumor cell kill: 2.82
  T/C: 10.3%

## CC(Oc1ccc(Oc2ccc3ccc(Br)cc3n2)cc1)C(=O)O (stereo not drawn)
[16]
  Cures: 0
  Drug deaths: 0
[17]
  Activity rating: >2.8
  Body weight loss at nadir: 5.9%
  Log tumor cell kill: 3.1
  T/C: 2.8%

## CC(Oc1ccc(Oc2ccc3ccc(Br)cc3n2)cc1)C(=O)O (racemic)
[18]
  Cures: 0
  Drug deaths: 0
[19]
  Activity rating: >2.8
  Body weight loss at nadir: -5.5%
  Log tumor cell kill: 4.2
  T/C: 0%

## CC(Oc1ccc(Oc2nc3ccc(Cl)cc3o2)cc1)C(=O)O (racemic) [FENOXAPROP]
[20]
  Cures: 0
  Drug deaths: 0
[21]
  Log tumor cell kill: inactive
[22]
  Activity rating: <0.7
  Body weight loss at nadir: 0%
  T/C: >100%

## CC(Oc1ccc(Oc2ccc3ccc(F)cc3n2)cc1)C(=O)O (racemic)
[23]
  Cures: 0
  Drug deaths: 0
[24]
  Activity rating: 1.9
  Body weight loss at nadir: -1.6%
  Log tumor cell kill: 1.5
  T/C: 14%

## CC(Oc1ccc(Oc2nc3cc(Cl)ccc3o2)cc1)C(=O)O (racemic)
[25]
  Cures: 0
  Drug deaths: 0
[26]
  Log tumor cell kill: inactive
[27]
  Activity rating: <0.7
  Body weight loss at nadir: -2.3%
  T/C: >100%
